From patent publication US7384934B2, “Piperazine substituted aryl benzodiazepines” (Eli Lilly and Company, priority 2002, dated 2008)
pKi: −log10 of the molar value. Structures can show the parent of a compound that is named as a salt. Blank lines part the entries; values can stand above or below the compound they belong to.

Target: T1, Dopamine D2 receptor (Homo sapiens, UniProt P14416)
T1 construct: purchased Receptor Biology (now owned by NEN) RBHD2CM
Experiment: Dopamine D2 receptor binding assay ([125I]iodospiperone)
Conditions: relative Ki scale of Table 5; read-out: Relative D2 Receptor Binding Affinity Ki
Method: The assay buffers used are 50 mM Tris-HCl pH 7.4, 120 mM NaCl, 5 mM KCl, 5 mM MgCl2, 1 mM EDTA for the Dopamine D2s receptor binding assay. […] The membranes used are from Receptor Biology (now owned by NEN), Cat # RBHD2CM for the D2 receptor.
Compounds are obtained as 10 mM stocks in 100% DMSO. They are diluted to 1 mM in 100% DMSO by adding 180 μL DMSO to 20 μL of stock in 96 well plates using a multidrop. […] This is done using a TECAN robot.
The radioligand is diluted in assay buffer to provide 0.1 nM for the D2 assay. Each vial of membranes is diluted up to 92 mL in assay buffer. The final assay volume is 250 μL consisting of 210 μl of diluted membranes, 20 μL of compound or 10% DMSO for total binding, and 20 μL of diluted radioligand. The compounds are transferred from drug dilution plates into coming 96 well assay plates using a 96 well Multimek pipettor. Radioligand and membranes are added to assay plates using multidrop pipettors. Non-specific binding is determined in wells containing a final concentration of 5 μM haloperidol. The final drug concentration range in half logs is from 10 μM down to 0.1 nM.
After addition of drug, membrane, and ligand, the plates are incubated for 2 hours at room temperature. During this time 96 well Millipore filter plates (MAFBNOB50) are soaked for a least 30 minutes with 200 μL per well of 0.5% polyethyleneimine.
The 0.5% PEI is removed from filterplate wells using a TiterTek MAP aspirator and 200 μL of the incubation mixture is transferred from the incubation plate to the filterplate after mixing. This transfer is done using the 96 tip Mutimek pipettor. After transfer to the filterplate filterplates are extracted and ished twice with 220 μL per well of cold buffer on the MAP aspirator. The peel away bottoms are removed from the filterplates and 60 μL per well of microscint 20 scintillation fluid is added per well using a multidrop. […]

T1 sequence (P14416 1-414 isoform P14416-2): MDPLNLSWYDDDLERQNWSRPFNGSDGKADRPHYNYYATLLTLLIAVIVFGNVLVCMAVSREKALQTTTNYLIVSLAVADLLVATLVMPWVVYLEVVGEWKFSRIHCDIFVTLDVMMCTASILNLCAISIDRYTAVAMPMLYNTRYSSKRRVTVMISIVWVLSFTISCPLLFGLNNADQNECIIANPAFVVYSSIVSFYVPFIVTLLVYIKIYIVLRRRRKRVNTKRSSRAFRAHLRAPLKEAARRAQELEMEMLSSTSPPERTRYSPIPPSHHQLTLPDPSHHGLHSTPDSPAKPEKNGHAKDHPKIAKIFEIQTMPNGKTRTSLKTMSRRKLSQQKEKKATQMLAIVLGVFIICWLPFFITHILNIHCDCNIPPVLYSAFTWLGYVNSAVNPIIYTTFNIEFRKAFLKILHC

SMILES: CCOCC[C@H]1CN(C2=Nc3ccccc3Nc3sc(C)nc32)CCN1 [Example 302, (S)-10-[3-(2-Ethoxyethyl)-piperazin-1-yl]-2-methyl-4H-3-thia-1,4,9-triazabenzo[f]azulene]
- pKi: 7.00 to 8.00

SMILES: COCC[C@H]1CN(C2=Nc3ccccc3Nc3sc(C)cc32)CCN1 [Example 242, (S)-10-[3-(2-Methoxyethyl)-piperazin-1-yl]-2-methyl-4H-3-thia-4,9-diazabenzo[f]azulene hydrochloride]
- pKi: 7.00 to 8.00

SMILES: CCCc1nc2c(s1)Nc1ccccc1N=C2N1CCN[C@@H](CCOC)C1 [Example 304, (S)-10-[3-(2-Methoxy-ethyl)-piperazin-1-yl]-2-propyl-4H-3-thia-1,4,9-triaza-benzo[f]azulene]
- pKi: > 8.00

SMILES: CCCCc1nc2c(s1)Nc1ccccc1N=C2N1CCN[C@@H](CCOC)C1 [Example 305, (S)-10-[3-(2-Methoxy-ethyl)-piperazin-1-yl]-2-butyl-4H-3-thia-1,4,9-triaza-benzo[f]azulene]
- pKi: 7.00 to 8.00

SMILES: CCOCC[C@H]1CN(C2=Nc3ccccc3Nc3sc(C)nc32)CCN1C [Example 321, (S)-10-[3-(2-Ethoxyethyl)-4-methyl-piperazin-1-yl]-2-methyl-4H-3-thia-1,4,9-triazabenzo[f]azulene dihydrochloride]
- pKi: 6.00 to 7.00

SMILES: CCOCC[C@H]1CN(C2=Nc3ccccc3Nc3sc(C)cc32)CCN1C [Example 268, (S)-10-[3-(2-Ethoxyethyl)-4-methyl-piperazin-1-yl]-2-methyl-4H-3-thia-4,9-diazabenzo[f]azulene dihydrochloride]
- pKi: 7.00 to 8.00

SMILES: CCOCC[C@H]1CN(C2=Nc3ccccc3Nc3sc(C(C)C)nc32)CCN1 [Example 309, (S)-10-[3-(2-Ethoxyethyl)-piperazin-1-yl]-2-isopropyl-4H-3-thia-1,4,9-triazabenzo[f]azulene]
- pKi: 7.00 to 8.00

SMILES: CCc1nc2c(s1)Nc1ccccc1N=C2N1CCN[C@@H](CCOC)C1 [Example 303, (S)-10-[3-(2-Methoxy-ethyl)-piperazin-1-yl]-2-ethyl-4H-3-thia-1,4,9-triaza-benzo[f]azulene]
- pKi: > 8.00

SMILES: CCc1nc2c(s1)Nc1ccccc1N=C2N1CCN(C)[C@@H](CCOC)C1 [Example 322, (S)-10-[3-(2-Methoxy-ethyl)-4-methyl-piperazin-1-yl]-2-ethyl-4H-3-thia-1,49-triaza-benzo[f]azulene dihydrochloride]
- pKi: 7.00 to 8.00

SMILES: CCCc1nc2c(s1)Nc1ccccc1N=C2N1CCN(C)[C@@H](CCOC)C1 [Example 323, (S)-10-[3-(2-Methoxy-ethyl)-4-methyl-piperazin-1-yl]-2-propyl 4H-3-thia-1,4,9-triaza-benzo[f]azulene dihydrochloride]
- pKi: 7.00 to 8.00

Now from value to compound:

- pKi: 6.00 to 7.00
SMILES: CCOC(=O)c1nc2c(s1)Nc1ccccc1N=C2N1CCN(C)[C@@H](CCOC)C1 [Example 333, (S)-10-[3-(2-Methoxy-ethyl)-4-methyl-piperazin-1-yl]-4H-3-thia-1,4,9-triaza-benzo[f]azulene-2-carboxylic acid ethyl ester dihydrochloride]

- pKi: 6.00 to 7.00
SMILES: Cc1cc2c(s1)Nc1ccccc1N=C2N1CCN(C)[C@@H](CC(C)(C)O)C1 [Example 370, (S)-2-Methyl-1-[1-methyl-4-(2-methyl-4H-3-thia-4,9-diazabenzo[f]azulene-10-yl)-piperazin-2-yl]-propan-2-ol dihydrochloride]

- pKi: 6.00 to 7.00
SMILES: COC(C)C[C@H]1CN(C2=Nc3ccccc3Nc3sc(C)cc32)CCN1C (mixture of isomers) [Example 360, 10-[3(S)-(2(S)-Methoxypropyl)-4-methylpiperazin-1-yl]-2-methyl-4H-3-thia-4,9-diazabenzo[f]azulene dihydrochloride and 10-[3(S)-(2(R)-Methoxypropyl)-4-methylpiperazin-1-yl]-2-methyl-4H-3-thia-4,9-diazabenzo[f]azulene dihydrochloride]

- pKi: 7.00 to 8.00
SMILES: COCC[C@H]1CN(C2=Nc3ccccc3Nc3sc(C(C)C)nc32)CCN1CCO [Example 342, (S)-2-[4-(2-Isopropyl-4H-3-thia-1,4,9-triazabenzo[f]azulene-10-yl)-2-(2-methoxyethyl)piperazin-1-yl]ethanol dihydrochloride]

- pKi: > 8.00
SMILES: CC(C)c1nc2c(s1)Nc1ccccc1N=C2N1CCN(C)[C@@H](CC(C)(C)O)C1 [Example 368, (S)-1-[4-(2-Isopropyl-4H-3-thia-1,4,9-triazabenzo[f]azulene-10-yl)-1-methylpiperazin-2-yl]-2-methyl-propan-2-ol dihydrochloride]

- pKi: 7.00 to 8.00
SMILES: COCC[C@H]1CN(C2=Nc3ccccc3Nc3sc(C4CCCC4)nc32)CCN1C [Example 331, (S)-10-[3-(2-Methoxyethyl)-4-methylpiperazin-1-yl]-2-cyclopentyl 4H-3-thia-1,4,9-triazabenzo[f]azulene dihydrochloride]

- pKi: > 8.00
SMILES: CCN1CCN(C2=Nc3ccccc3Nc3sc(C(F)(F)F)nc32)C[C@@H]1CCOC [Example 344, (S)-10-[4-Ethyl-3-(2-methoxy-ethyl)-piperazin-1-yl]-2-trifluoromethyl-4H-3-thia-1,4,9-triaza-benzo[f]azulene]

- pKi: > 8.00
SMILES: COC(C)C[C@H]1CN(C2=Nc3ccccc3Nc3sc(C(C)C)nc32)CCN1 (mixture of isomers) [Example 361, 10-[3(S)-(2(S)-Methoxy-propyl)-piperazin-1-yl]-2-isopropyl-4H-3-thia-1,4,9-triazabenzo[f]azulene and 10-[3(S)-(2(R)-Methoxy-propyl)-piperazin-1-yl]-2-isopropyl-4H-3-thia-1,4,9-triazabenzo[f]azulene]

- pKi: > 8.00
SMILES: COCC[C@H]1CN(C2=Nc3ccccc3Nc3sc(C(F)F)nc32)CCN1C [Example 336, (S)-10-[3-(2-Methoxy-ethyl)-4-methyl-piperazin-1-yl]-2-difluoromethyl 4H-3-thia-1,4,9-triaza-benzo[f]azulene]

- pKi: 7.00 to 8.00
SMILES: CCN1CCN(C2=Nc3ccccc3Nc3sc(C(C)C)nc32)C[C@@H]1CCOC [Example 340, (S)-10-[4-Ethyl-3-(2-methoxyethyl)piperazin-1-yl]-2-isopropyl-4H-3-thia-1,4,9-triazabenzo[f]azulene dihydrochloride]

- pKi: 7.00 to 8.00
SMILES: CCCCc1nc2c(s1)Nc1ccccc1N=C2N1CCN(C)[C@@H](CCOC)C1 [Example 324, (S)-10-[3-(2-Methoxy-ethyl)-4-methyl-piperazin-1-yl]-2-butyl 4H-3-thia-1,4,9-triaza-benzo[f]azulene]

- pKi: 7.00 to 8.00
SMILES: COCC[C@H]1CN(C2=Nc3ccccc3Nc3sc(CCC(F)(F)F)nc32)CCN1C [Example 338, (S)-10-[3-(2-Methoxy-ethyl)-4-methyl-piperazin-1-yl]-2-(3,3,3-trifluoro-propyl)-4H-3-thia-1,4,9-triaza-benzo[f]azulene dihydrochloride]

- pKi: 7.00 to 8.00
SMILES: COCC[C@H]1CN(C2=Nc3ccccc3Nc3sc(C(F)(F)F)nc32)CCN1CCOCCO [Example 357]

- pKi: 7.00 to 8.00
SMILES: COCC[C@H]1CN(C2=Nc3ccccc3Nc3sc(C(C)C)nc32)CCN1C1CC1 [Example 339, (S)-10-[4-Cyclopropyl-3-(2-methoxyethyl)piperazin-1-yl]-2-isopropyl-4H-3-thia-1,4,9-triazabenzo[f]azulene dihydrochloride]
